Calls of active or inactive are those of the source. No cut-off for these calls is given here.
Experiments:
BGC-823 = assay: Antiproliferative activity against human BGC-823 cells at 25 uM measured after 48 hrs by MTT assay relative to control; format: functional
HCT-116 = assay: Antiproliferative activity against human HCT-116 cells at 25 uM measured after 48 hrs by MTT assay relative to control; format: functional
B16 [1] = assay: Antiproliferative activity against mouse B16 cells at 25 uM measured after 48 hrs by MTT assay relative to control; format: functional
B16 [2] = assay: Antiproliferative activity against mouse B16 cells measured after 48 hrs by MTT assay; format: functional, cell-based; conditions: B16, 48 h
[3] = Drug metabolism in mouse plasma assessed as abiraterone Cmax at 20 mg/kg, IG; format: ADME, organism-based; conditions: in vivo, po
B16 [4] = assay: Anti-melanoma activity against mouse B16 cells xenografted in Kunming mouse model assessed as reduction in tumor volume at 60 mg/kg, IG measured after 7 to 27 days; format: functional, organism-based; conditions: time 7-27 day
B16 [5] = assay: Anti-melanoma activity against mouse B16 cells xenografted in Kunming mouse model assessed as suppression of tumor weight at 60 mg/kg, IG measured every two days for 27 days (reference value: 10.61+/-1.05g); format: functional; conditions: time 27 day
B16 [6] = assay: Downregulation of Bcl-2 expression in mouse B16 cells at 9.70 uM measured after 48 hrs by Western blot analysis; format: functional, cell-based; conditions: dose 9.7 µM
B16 [7] = assay: Upregulation of caspase 3 expression in mouse B16 cells at 9.70 uM measured after 48 hrs by Western blot analysis; format: functional, cell-based; conditions: dose 9.7 µM
[8] = Induction of apoptosis in mouse B16 cells at 19.4 uM measured after 48 hrs by annexin-V/PI double staining based flow cytometry analysis relative to control; format: functional
[9] = Toxicity in Kunming mouse assessed as effect on body weight at 60 mg/kg, IG measured after 21 days; format: organism-based; conditions: in vivo, po, 504 h, time 21 day
B16 [10] = assay: Induction of endoplasmic reticulum (ER) stress in mouse B16 cells assessed as decrease in alix expression at 9.70 uM measured after 48 hrs by Western blot analysis; format: functional, cell-based; conditions: dose 9.7 µM
B16 [11] = assay: Anti-melanoma activity against mouse B16 cells xenografted in Kunming mouse model assessed as increase in bax expression at 60 mg/kg, IG measured after 27 days by IHC staining based analysis; format: functional, organism-based; conditions: time 27.0 day
B16 [12] = assay: Anti-melanoma activity against mouse B16 cells xenografted in Kunming mouse model assessed as increase in caspase 8 expression at 60 mg/kg, IG measured after 27 days by IHC staining based analysis; format: functional, organism-based; conditions: time 27.0 day
B16 [13] = assay: Upregulation of […] expression in mouse B16 cells at 9.70 uM measured after 48 hrs by Western blot analysis; format: functional, cell-based; conditions: dose 9.7 µM
DU-145 = assay: Antiproliferative activity against human DU-145 cells at 25 uM measured after 48 hrs by MTT assay; format: functional, cell-based
[14] = Inhibition of cell migration in mouse B16 cells at 9.70 uM measured after 24 hrs by crystal violet staining based analysis relative to control; format: functional
PC-3 = assay: Antiproliferative activity against human PC-3 cells at 25 uM measured after 48 hrs by MTT assay; format: functional, cell-based
[15] = Induction of apoptosis in mouse B16 cells assessed as necrosis at 19.4 uM measured after 48 hrs by annexin-V/PI double staining based flow cytometry analysis relative to control; format: functional
B16 [16] = assay: Induction of endoplasmic reticulum (ER) stress in mouse B16 cells assessed as effect on CHOP expression at 9.70 uM measured after 48 hrs by Western blot analysis; format: functional, cell-based; conditions: dose 9.7 µM
[17] = Inhibition of cell invasion in mouse B16 cells at 9.70 uM measured after 24 hrs by crystal violet staining based analysis relative to control; format: functional
B16 [18] = assay: Upregulation of caspase 8 expression in mouse B16 cells at 9.70 uM measured after 48 hrs by Western blot analysis; format: functional, cell-based; conditions: dose 9.7 µM
B16 [19] = assay: Anti-melanoma activity against mouse B16 cells xenografted in Kunming mouse model assessed as reduction in tumor volume at 60 mg/kg, IG measured upto 27 days; format: functional, organism-based; conditions: time <= 27.0 day
B16 [20] = assay: Anti-melanoma activity against mouse B16 cells xenografted in Kunming mouse model assessed as reduction in tumor volume at 60 mg/kg, IG measured after 5 days; format: functional, organism-based; conditions: time 5.0 day
B16 [21] = assay: Anti-melanoma activity against mouse B16 cells xenografted in Kunming mouse model assessed as decrease in bcl-2 level at 60 mg/kg, IG measured after 27 days by IHC staining based analysis; format: functional, organism-based; conditions: time 27.0 day
[22] = Drug metabolism in mouse plasma assessed as abiraterone Tmax at 20 mg/kg, IG; format: ADME, organism-based; conditions: in vivo, po
B16 [23] = assay: Induction of endoplasmic reticulum (ER) stress in mouse B16 cells assessed as effect on GRP78 expression at 9.70 uM measured after 48 hrs by Western blot analysis; format: functional, cell-based; conditions: dose 9.7 µM
B16 [24] = assay: Anti-melanoma activity against mouse B16 cells xenografted in Kunming mouse model assessed as inhibition of tumor weight at 60 mg/kg, IG measured every two days for 27 days relative to control; format: functional; parameters: scale not given: the % may be the effect or the level left; conditions: time 27 day
[25] = Inhibition of cell migration in mouse B16 cells at 9.70 uM measured after 48 hrs by scratch-wound healing assay relative to control; format: functional
B16 [26] = assay: Anti-melanoma activity against mouse B16 cells xenografted in Kunming mouse model assessed as increase in caspase 3 expression at 60 mg/kg, IG measured after 27 days by IHC staining based analysis; format: functional, organism-based; conditions: time 27.0 day
[27] = Antiproliferative activity against human Prostate tumor cell line at 25 uM measured after 48 hrs by MTT assay relative to control; format: functional
B16 [28] = assay: Effect on Bcl-2 expression in mouse B16 cells at 9.70 uM measured after 48 hrs by Western blot analysis; format: functional, cell-based; conditions: dose 9.7 µM

CC(C)[C@H](N)C(=O)N[C@@H](C)C(=O)O[C@H]1CC[C@@]2(C)C(=CC[C@@H]3[C@@H]2CC[C@]2(C)C(O)=CC[C@@H]32)C1
Activity (BGC-823): 81.6%
Activity (HCT-116): 66%
Activity (B16 [1]): 83.7%

C[C@]12CC[C@H](OC(=O)CN)CC1=CC[C@@H]1[C@@H]2CC[C@]2(C)C(O)=CC[C@@H]12
IC50 (B16 [2]): 71.6 µM

CC(C)C[C@H](N)C(=O)O[C@H]1CC[C@@]2(C)C(=CC[C@@H]3[C@@H]2CC[C@]2(C)C(O)=CC[C@@H]32)C1
IC50 (B16 [2]): > 1000 µM

CC(=O)O[C@H]1CC[C@@]2(C)C(=CC[C@@H]3[C@@H]2CC[C@]2(C)C(c4cccnc4)=CC[C@@H]32)C1 [ABIRATERONE ACETATE]
Cmax [3]: 681 ng/mL
Activity (B16 [4]): inactive
IC50 (B16 [2]): 28.7 µM
Activity (B16 [5]): 2.5 g
Activity (B16 [6]): Active
Activity (B16 [7]): inactive
Activity [8]: 9%
Activity [9]: Toxic
Activity (B16 [10]): Active
Activity (B16 [11]): Active
Activity (B16 [12]): Active
Activity (B16 [13]): Active
Activity (DU-145): Active
inhibition at 9.7 µM [14]: 51%
Activity (PC-3): Active
Activity [15]: 49.8%
Activity (B16 [16]): inactive
inhibition at 9.7 µM [17]: 61%
Activity (B16 [18]): Active
Activity (B16 [19]): inactive
Activity (B16 [20]): Active
Activity (B16 [21]): Active
Tmax [22]: 4 h
Activity (B16 [23]): inactive
Activity (B16 [24]): 76.42%
inhibition at 9.7 µM [25]: 64%
Activity (B16 [26]): Active

C[C@]12CC[C@H](O)CC1=CC[C@@H]1[C@@H]2CC[C@]2(C)C(c3cccnc3)=CC[C@@H]12 [ABIRATERONE]
Activity (B16 [4]): inactive
IC50 (B16 [2]): 106 µM
Activity (B16 [5]): 8.7 g
Activity [9]: Toxic
Activity (DU-145): Active
Activity (PC-3): Active
Activity (B16 [20]): Active
Activity [27]: 69.3%
Activity (B16 [24]): 17.93%

CC(C)[C@H](N)C(=O)N[C@H](C(=O)O[C@H]1CC[C@@]2(C)C(=CC[C@@H]3[C@@H]2CC[C@]2(C)C(O)=CC[C@@H]32)C1)C(C)C
IC50 (B16 [2]): 23.6 µM

CC(C)[C@H](N)C(=O)NCC(=O)O[C@H]1CC[C@@]2(C)C(=CC[C@@H]3[C@@H]2CC[C@]2(C)C(c4cccnc4)=CC[C@@H]32)C1
IC50 (B16 [2]): 13.4 µM

CC(=O)O[C@H]1CC[C@@]2(C)C(=CC[C@@H]3[C@@H]2CC[C@]2(C)C(c4ccc(Cl)nc4)=CC[C@@H]32)C1
IC50 (B16 [2]): > 1000 µM

C[C@]12CC[C@H](O)CC1=CC[C@@H]1[C@@H]2CC[C@]2(C)C(c3ccc(Cl)nc3)=CC[C@@H]12
IC50 (B16 [2]): 113 µM

C[C@]12CC[C@H](OC(=O)CNC(=O)CN)CC1=CC[C@@H]1[C@@H]2CC[C@]2(C)C(c3cccnc3)=CC[C@@H]12
IC50 (B16 [2]): 177 µM

C[C@]12CC[C@H](OC(=O)[C@@H]3CCCN3C(=O)CN)CC1=CC[C@@H]1[C@@H]2CC[C@]2(C)C(c3cccnc3)=CC[C@@H]12
IC50 (B16 [2]): > 1000 µM

COc1ccc(C2=CC[C@H]3[C@@H]4CC=C5C[C@@H](OC(C)=O)CC[C@]5(C)[C@H]4CC[C@]23C)cn1
IC50 (B16 [2]): > 1000 µM

C[C@]12CC[C@H](OC(=O)CN)CC1=CC[C@@H]1[C@@H]2CC[C@]2(C)C(c3cccnc3)=CC[C@@H]12
IC50 (B16 [2]): 221 µM

C[C@]12CC[C@H](O)CC1=CC[C@@H]1[C@@H]2CC[C@]2(C)C(c3ccc(F)nc3)=CC[C@@H]12
IC50 (B16 [2]): 56.4 µM

CC(C)[C@H](NC(=O)CN)C(=O)O[C@H]1CC[C@@]2(C)C(=CC[C@@H]3[C@@H]2CC[C@]2(C)C(c4ccc(F)nc4)=CC[C@@H]32)C1
IC50 (B16 [2]): 3.16 µM

CC(C)[C@H](NC(=O)CN)C(=O)O[C@H]1CC[C@@]2(C)C(=CC[C@@H]3[C@@H]2CC[C@]2(C)C(c4cnccc4Cl)=CC[C@@H]32)C1
IC50 (B16 [2]): 3.78 µM

CC(C)[C@H](NC(=O)CN)C(=O)O[C@H]1CC[C@@]2(C)C(=CC[C@@H]3[C@@H]2CC[C@]2(C)C(O)=CC[C@@H]32)C1
IC50 (B16 [2]): 16.5 µM

CC(C)C[C@H](NC(=O)CN)C(=O)O[C@H]1CC[C@@]2(C)C(=CC[C@@H]3[C@@H]2CC[C@]2(C)C(c4cccnc4)=CC[C@@H]32)C1
Activity (B16 [28]): inactive
IC50 (B16 [2]): 30.5 µM
Activity (B16 [7]): Active
Activity (B16 [13]): Active
Activity (B16 [18]): Active
